Data on 6 compounds can be found in patent publication US20250136558A1, “PYRAZINE COMPOUNDS AS IRREVERSIBLE INHIBITORS OF FLT3” (BIOMEA FUSION, INC., priority 2021, published 2025).

Assay [1] has as its system quizartinib-resistant AML. To be noted: Yamaura et al., 2018; cited from earlier work.
In another assay the test system is MOLM-13. As to the kind of experiment: Proliferation inhibition (CellTiter-Glo) in MOLM-13 cells. Format: cell-based. As to conditions: Homo sapiens, 96 h, MOLM-13 AML cells, heterozygous FLT3-ITD, IC50 (4 days). The essentials:
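MOLM-13 human AML cells, heterozygous for FLT3-ITD, were grown in RPMI-1640 with 10% heat-inactivated FBS and 1% Pen-Strep. About 10,000 cells in 200 μL were seeded per well of 96-well plates. After 2 hours, compounds from DMSO stocks were dispensed at eight concentrations in duplicate, with 0.2% DMSO as the untreated control. Viability was read as CellTiter-Glo ATP luminescence, and IC50 was obtained from a four-parameter logistic fit.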
A general note: Cellular ATP, detected with luciferase, serves as a proxy for viable cell number.

The test system of another assay is MV-4-11. As to the kind of experiment: Proliferation inhibition (CellTiter-Glo) in MV-4-11 cells. To be noted: Homo sapiens, MV4-11, 96 h, MV-4-11 AML cells, homozygous FLT3-ITD, IC50 (4 days). Format: cell-based. The essentials:
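MV-4-11 human AML cells (homozygous FLT3-ITD) grown in RPMI-1640 with 10% heat-inactivated FBS and 1% Pen-Strep were seeded at about 10,000 cells per 200 μL in 96 well plates. Two hours later, compounds were dispensed at eight concentrations in duplicate. Viability was measured by CellTiter-Glo luminescence, and IC50 values came from four-parameter logistic non-linear regression against untreated cells (0.2% DMSO).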

The next assay has as its system K-562. As to the kind of experiment: Proliferation inhibition (CellTiter-Glo) in K-562 cells. Format: cell-based. As to conditions: Homo sapiens, K562, 96 h, K-562 CML cells, no FLT3 mutations, IC50 (4 days). The gist of the method:
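The CML line […] (ATCC: CRL-3343) was cultured in RPMI-1640 with 10% heat-inactivated FBS and 1% Pen-Strep at 37° C. Cells were seeded at about 10,000 per 200 μL in 96-well plates, and test compound was dispensed 2 hours later at eight concentrations in duplicate. Viability was measured as ATP luminescence with CellTiter-Glo. Untreated cells (0.2% DMSO) defined 100% proliferation, and IC50 values came from four-parameter logistic fits.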

As for `CCCNc1nc(Nc2ccc(C#N)cc2)ncc1C#CCCCNC(=O)[C@H](C)N(C)C(=O)/C=C/CN(C)C` [FF-10101], in assay [1], the “activity against quizartinib-resistant AML” value is “demonstrated activity”.
In general, IC50 refers to the concentration needed to halve the response being measured. Read a low IC50 as higher potency. Regarding `CCc1nc(C(N)=O)c(Nc2cccc(OCCCNC(=O)[C@H](C)N(C)C(=O)/C=C/CN3CC(F)(F)C3)c2)nc1NC1CCOCC1` [Compound 147, (S,E)-3-((3-(3-(2-(4-(3,3-difluoroazetidin-1-yl)-N-methylbut-2-enamido)propanamido)propoxy)phenyl)amino)-6-ethyl-5-((tetrahydro-2H-pyran-4-yl)amino)pyrazine-2-carboxamide], the IC50 in the assay with MOLM-13 was over 0.5 µM; with MV-4-11, 0.01 to 0.1 µM; in the assay with K-562 it was over 0.5 µM.
With `CCc1nc(C(N)=O)c(Nc2cc(F)cc(O[C@H](C)CNC(=O)C(C)N(C)C(=O)/C=C/CN(C)C)c2)nc1N(C)C` (stereo partly drawn) [Compound 155, 5-(dimethylamino)-3-((3-(((2R)-1-(2-((E)-4-(dimethylamino)-N-methylbut-2-enamido)propanamido)propan-2-yl)oxy)-5-fluorophenyl)amino)-6-ethylpyrazine-2-carboxamide], the IC50 with MOLM-13 was 0.01 to 0.1 µM; in the assay with MV-4-11, 0.01 to 0.1 µM; with K-562 it was over 0.5 µM.
As to `C=CC(=O)N1CC(CC(=O)Nc2cccc(Nc3nc(NC4CCOCC4)c(CC)nc3C(N)=O)c2)C1` [Compound 105, 6-ethyl-3-[3-[[2-(1-prop-2-enoylazetidin-3-yl)acetyl]amino]anilino]-5-(tetrahydropyran-4-ylamino)pyrazine-2-carboxamide], the IC50 in the assay with MOLM-13 is 0.01 to 0.1 µM; in the assay with MV-4-11 it was 0.001 to 0.01 µM; in the assay with K-562, over 0.5 µM.
For `CC#CC(=O)NCCC(=O)NCCc1cc(Nc2nc(NC3CCOCC3)c(CC)nc2C(N)=O)cc(OC)c1` [Compound 101, 3-[3-[2-[3-(but-2-ynoylamino)propanoylamino]ethyl]-5-methoxy-anilino]-6-ethyl-5-(tetrahydropyran-4-ylamino)pyrazine-2-carboxamide], in that order: 0.01 to 0.1 µM, 0.01 to 0.1 µM and over 0.5 µM.
For `C=CC(=O)N(C)[C@@H](C)C(=O)NCCc1cc(Nc2nc(NC3CCOCC3)c(CC)nc2C(N)=O)cc(OC)c1` [Compound 109, 6-ethyl-3-[3-methoxy-5-[2-[[(2S)-2-[methyl(prop-2-enoyl)amino]propanoyl]amino]ethyl]anilino]-5-(tetrahydropyran-4-ylamino)pyrazine-2-carboxamide], in that order: 0.001 to 0.01 µM, 0.001 to 0.01 µM and over 0.5 µM.
